This experiment concerns NCI-H358(KRAS^G12C mutation) cells. Nature of the experiment: Cell assay of antiproliferative activity (Celltiter-Glo, 5 days) against NCI-H358 cells. It counts as cell-based. The settings on record: 5 days incubation. As for the experimental part:
Cell assay of antiproliferative activity of compounds against NCI-H358(KRAS^G12C mutation) and A549(KRAS^G12S mutation) cells.
40 μl phosphate buffer was added to the outer wells of the 384 microplate, and 40 μl cell suspension to be tested was added to the other wells. Then the microplate was incubated in a carbon dioxide incubator overnight.
The compounds to be tested were gradiently diluted, each compound was performed 10 concentration gradients (diluted from 50 μM to 0.003 μM) and added 100 nL to the corresponding wells in the microplate. After addition, 40 μl of phosphate buffer was added to each well in rows A and P and columns 1 and 24, and then the microplate was incubated in a carbon dioxide incubator for 5 days.
20 μL of Promega Celltiter-Glo reagent was added to each well of the microplate, and then the luminescence signal was stabilized by oscillating at room temperature for 10 min. Then PekinElmer Envision multi-label analyzer was used to read.
Finally, GraphPad Prism software was used to calculate the IC50 value of the compound and the fitting curve was drawn.
Anti-proliferative activity of the compounds of the present invention against NCI-H358(KRAS^G12C mutation) and A549(KRAS^G12S mutation) cells were shown in Table 1.

Among the data in US11459327B1, “Cycloalkyl and hetero-cycloalkyl inhibitors, preparation methods therefor, and use thereof” (Suzhou Zelgen Biopharmaceuticals Co., Ltd., priority 2019, dated 2022) are IC50 values, retold here.

Broadly, the IC50 is the midpoint of a concentration-inhibition curve. Read a low IC50 as greater potency. Molecule `C=C(F)C(=O)N1CCN(c2nc(OCC3(C(C)N(C)C)CC3)nc3c2CCN(c2cccc4cccc(Cl)c24)C3)C[C@@H]1CC#N` (stereo partly drawn) [Example 47A, 2-((2S)-4-(7-(8-chloronaphthalen-1-yl)-2-((1-(1-(dimethylamino)ethyl)cyclopropyl)methoxy)-5,6,7,8-tetrahydropyrido[3,4-d]pyrimidin-4-yl)-1-(2-fluoroacroloyl)piperazin-2-yl) acetonitrile] displayed a half-inhibitory concentration (IC50) of 100 nM.

The molecule `C=CC(=O)N1CCN(c2nc(OCC3(CN(C)C)CC3)nc3c2CC(C)N(c2cccc4cccc(Cl)c24)C3)CC1CC#N` (single isomer, unassigned) [Example 29A, 2-(1-acroloyl-4-(7-(8-chloronaphthalen-1-yl)-2-((1-((dimethylamino)methyl)cyclopropyl)methoxyl)-6-methyl-5,6,7,8-tetrahydropyrido [3,4-d]pyrimidin-4-yl)piperazin-2-yl) acetonitrile] yielded a concentration for half-maximal inhibition (IC50) of 360 nM. Molecule `C=CC(=O)N1CCN(c2nc(OCC3(CNC)CC3)nc3c2CCN(c2cccc4cccc(Cl)c24)C3)CC1CC#N` (stereo not drawn) [Example 26, 2-(1-acroloyl-4-(7-(8-chloronaphthalen-1-yl)-2-((1-((methylamino)methyl)cyclopropyl)methoxy)-5,6,7,8-tetrahydropyrido[3,4-d]pyrimidin-4-yl)piperazin-2-yl) acetonitrile] registered a concentration for half-maximal inhibition (IC50) of 62 nM. Take `C=C(F)C(=O)N1CCN(c2nc(OCC3(COC)CN(C)C3)nc3c2CCN(c2cccc4cccc(Cl)c24)C3)C[C@@H]1CC#N` [Example 46]: under “Homo sapiens, NCI-H358, 120 h”, the 50% inhibitory concentration (IC50) came to 37 nM. Still for that read-out and setting: with `C=CC(=O)N1CC2CC1CN2c1nc(OCC2(CN(C)C)CC2)nc2c1CCN(c1cccc3cccc(Cl)c13)C2` (stereo not drawn) [Example 42, 1-(5-(7-(8-chloronaphthalen-1-yl)-2-((1-((dimethylamino)methyl)cyclopropyl)methoxyl)-5,6,7,8-tetrahydropyrido[3,4-d]pyrimidin-4-yl)-2,5-diazabicyclo[2.2.1]heptane-2-yl)prop-2-ene-1-one] the figure was 5500 nM. For the molecule `C=C(F)C(=O)N1CCN(c2nc(OCC3(C(C)N(C)C)CC3)nc3c2CCN(c2cccc4cccc(Cl)c24)C3)C[C@@H]1CC#N` (stereo partly drawn) [Example 47B, 2-((2S)-4-(7-(8-chloronaphthalen-1-yl)-2-((1-(1-(dimethylamino)ethyl)cyclopropyl)methoxy)-5,6,7,8-tetrahydropyrido[3,4-d]pyrimidin-4-yl)-1-(2-fluoroacroloyl)piperazin-2-yl) acetonitrile], the IC50 is 71 nM. This lies in the double-digit nanomolar range. Consider `C=CC(=O)N1CCN(c2nc(OCCN(C)C3CC(F)(F)C3)nc3c2CCN(c2cccc4cccc(C)c24)C3)CC1CC#N` (stereo not drawn) [Example 85], for which the IC50 (Homo sapiens, NCI-H358, 120 h) is below 100 nM. Consider `C=CC(=O)N1C[C@@H](C)N(c2nc(OCC3(CN(C)C)CC3)nc3c2CCN(c2cccc4cccc(Cl)c24)C3)C[C@@H]1C` [Example 34, 1-((2S,5R)-4-(7-(8-chloronaphthalen-1-yl)-2-((1-((dimethylamino)methyl)cyclopropyl)methoxyl)-5,6,7,8-tetrahydropyrido[3,4-d]pyrimidin-4-yl)-2,5-dimethylpiperazin-1-yl)prop-2-ene-1-one], for which, for the setting “Homo sapiens, NCI-H358, 120 h”, the IC50 was 1900 nM.

For the molecule `C=C(F)C(=O)N1CCN(c2nc(OCC3(CN(C)C)CC3)nc3c2CCN(c2c(C)ccc4[nH]ncc24)C3)C[C@@H]1CC#N` [Example 35], the concentration for half-maximal inhibition (IC50) (Homo sapiens, NCI-H358, 120 h) stood at 310 nM. The same measure, in the same setting: with `C=C(F)C(=O)N1CCN(c2nc(OCC3(CN(C)C(C)C)CC3)nc3c2CCN(c2cccc4ccc(F)c(Cl)c24)C3)C[C@@H]1CC#N` [Example 61, (S)-2-(4-(7-(8-chloro-7-fluoronaphthalen-1-yl)-2-((1-((isopropyl(methyl)amino)methyl)cyclopropyl)methoxy)-5,6,7,8-tetrahydropyrido [3,4-d]pyrimidin-4-yl)-1-(2-fluoroacroloyl)piperazin-2-yl) acetonitrile] the figure was 110 nM; with `C=C(F)C(=O)N1CCN(c2nc(OCC3(CN(CC)CC)CC3)nc3c2CCN(c2cccc4ccc(F)c(Cl)c24)C3)C[C@@H]1CC#N` [Example 60, (S)-2-(4-(7-(8-chloro-7-fluoronaphthalen-1-yl)-2-((1-((diethylamino)methyl)cyclopropyl)methoxy)-5,6,7,8-tetrahydropyrido[3,4-d]pyrimidin-4-yl)-1-(2-fluoroacroloyl)piperazin-2-yl) acetonitrile], 92 nM. For the molecule `C=CC(=O)N1CCN(c2nc(OC[C@H](C)N(C)C3CCC3)nc3c2CCN(c2cccc4cccc(C)c24)C3)C[C@H]1CC#N` [Example 91B, 2-((R)-1-acroloyl-4-(2-((S)-2-(cyclobutyl(methyl)amino)propoxy)-7-(8-methylnaphthalen-1-yl)-5,6,7,8-tetrahydropyrido[3,4-d]pyrimidin-4-yl)piperazin-2-yl) acetonitrile], the 50% inhibitory concentration (IC50) is below 1000 nM. `C=CC(=O)N1CCN(c2nc(OCCN(C)CC3(F)CC3)nc3c2CCN(c2cccc4cccc(C)c24)C3)CC1CC#N` (stereo not drawn) [Example 80, 2-(1-acroloyl-4-(2-(2-(((1-fluorocyclopropyl)methyl) (methyl)amino)ethoxy)-7-(8-methylnaphthalen-1-yl)-5,6,7,8-tetrahydropyrido[3,4-d]pyrimidin-4-yl)piperazin-2-yl) acetonitrile] had an IC50 below 100 nM. `C=C(F)C(=O)N1CCN(c2nc(OCCN(C)C3(C)CCC3)nc3c2CCN(c2cccc4ccc(F)c(Cl)c24)C3)CC1CC#N` (stereo not drawn) [Example 33, 2-(4-(7-(8-chloro-7-fluoronaphthalen-1-yl)-2-(2-(methyl(1-methylcyclobutyl)amino)ethoxy)-5,6,7,8-tetrahydropyrido[3,4-d]pyrimidin-4-yl)-1-(2-fluoroacroloyl)piperazin-2-yl) acetonitrile] had a half-maximal inhibitory concentration (IC50) (Homo sapiens, NCI-H358, 120 h) of 66 nM. That is a double-digit nanomolar value. On the same count and under the same terms, the figure for `C=CC(=O)N1CCN(c2nc(OCC3(CN(C)C4CC4)COC3)nc3c2CCN(c2cccc4cccc(Cl)c24)C3)CC1CC#N` (stereo not drawn) [Example 32, 2-(1-acroloyl-4-(7-(8-chloronaphthalen-1-yl)-2-((3-((cyclopropyl(methyl)amino)methyl)oxetan-3-yl)methoxyl)-5,6,7,8-tetrahydropyrido[3,4-d]pyrimidin-4-yl)piperazin-2-yl) acetonitrile] is 120 nM; for `C=CC(=O)N1CC2(C1)CN(c1nc(OCC3(CN(C)C)CC3)nc3c1CCN(c1cccc4cccc(Cl)c14)C3)C2` [Example 40, 1-(6-(7-(8-chloronaphthalen-1-yl)-2-((1-((dimethylamino)methyl)cyclopropyl)methoxyl)-5,6,7,8-tetrahydropyrido[3,4-d]pyrimidin-4-yl)-2,6-diazaspiro[3.3]heptane-2-yl)prop-2-ene-1-one] it is 300 nM. Under “Homo sapiens, NCI-H358, 120 h”, `C=C(F)C(=O)N1CCN(c2nc(OCC3(CN(C)CCOC)CC3)nc3c2CCN(c2cccc4cccc(Cl)c24)C3)C[C@@H]1CC#N` [Example 69] showed an IC50 of 59 nM. `[2H]C([2H])([2H])N(CC1(COc2nc3c(c(N4CCN(C(=O)C(=C)F)[C@@H](CC#N)C4)n2)CCN(c2cccc4ccc(F)c(Cl)c24)C3)CC1)C([2H])([2H])[2H]` [Example 63] had an IC50 (Homo sapiens, NCI-H358, 120 h) of 7 nM. On the same count and under the same terms, the figure for `C=CC(=O)N1CCN(c2nc(OCCN(C)C3(COC)CCC3)nc3c2CCN(c2cccc4cccc(Cl)c24)C3)CC1CC#N` (stereo not drawn) [Example 31, 2-(acroloyl-4-(7-(8-chloronaphthalen-1-yl)-2-(2-((1-(methoxymethyl)cyclobutyl)(methyl)amino)ethoxy)-5,6,7,8-tetrahydropyrido[3,4-d]pyrimidin-4-yl)piperazin-2-yl) acetonitrile] is 73 nM; for `C=C(F)C(=O)N1CCN(c2nc(OCCN(C)C34CC(C3)C4)nc3c2CCN(c2cccc4cccc(Cl)c24)C3)C[C@@H]1CC#N` [Example 55] it is 870 nM.

Turning to `C=CC(=O)N1CCN(c2nc(OCC3(CN(C)C)CC3)nc3c2CC(C)N(c2cccc4cccc(Cl)c24)C3)CC1CC#N` (single isomer, unassigned) [Example 29D, 2-(1-acroloyl-4-(7-(8-chloronaphthalen-1-yl)-2-((1-((dimethylamino)methyl)cyclopropyl)methoxyl)-6-methyl-5,6,7,8-tetrahydropyrido [3,4-d]pyrimidin-4-yl)piperazin-2-yl) acetonitrile], it took 6 nM to reach half-maximal inhibition (IC50). For the setting “Homo sapiens, NCI-H358, 120 h”, `C=C(F)C(=O)N1CCN(c2nc(OCC3(CS(C)(=O)=O)CC3)nc3c2CCN(c2cccc4cccc(Cl)c24)C3)C[C@@H]1CC#N` [Example 57, (S)-2-(4-(7-(8-chloronaphthalen-1-yl)-2-((1-((methylsulfonyl)methyl)cyclopropyl)methoxy)-5,6,7,8-tetrahydropyrido[3,4-d]pyrimidin-4-yl)-1-(2-fluoroacroloyl)piperazin-2-yl) acetonitrile] registered a concentration for half-maximal inhibition (IC50) of 1300 nM. `C=C(F)C(=O)N1CCN(c2nc(OCC3(CN(C)C)CC3)nc3c2C[C@@H](C)N(c2cccc4ccc(F)c(Cl)c24)C3)C[C@@H]1CC#N` [Example 96B, 2-((S)-4-((R)-7-(8-chloro-7-fluoronaphthalen-1-yl)-2-((1-((dimethylamino)methyl)cyclopropyl)methoxy)-6-methyl-5,6,7,8-tetrahydropyrido[3,4-d]pyrimidin-4-yl)-1-(2-fluoroacroloyl)piperazin-2-yl) acetonitrile] displayed a half-inhibitory concentration (IC50) of 5 nM. `C=C(F)C(=O)N1CCN(c2nc(OCC3(CN4CC(C)C4)CC3)nc3c2CCN(c2cccc4ccc(F)c(Cl)c24)C3)C[C@@H]1CC#N` [Example 67, (S)-2-(4-(7-(8-chloro-7-fluoronaphthalen-1-yl)-2-((1-((3-methylazetidin-1-yl)methyl)cyclopropyl)methoxy)-5,6,7,8-tetrahydropyrido[3,4-d]pyrimidin-4-yl)-1-(2-fluoroacroloyl)piperazin-2-yl) acetonitrile] displayed an IC50 (Homo sapiens, NCI-H358, 120 h) of 51 nM.
